This is an account of results in ChEMBL document CHEMBL1201862, “PubChem BioAssay data set” (2004).

Experiment in all cases: inhibition of tumour cell growth, NCI panel, 48 h
In assay [1] the test system is HT-29.
Assay [2] deals with BT-549.
Assay [3] concerns OVCAR-4.
Assay [4] has as its system SR.
In assay [5] the test system is MDA-MB-435.
In assay [6] the test system is SNB-75.
The subject of assay [7] is KM12.
Assay [8] deals with OVCAR-8.
Assay [9] has as its system MOLT-4.
In assay [10] the test system is SNB-19.
The subject of assay [11] is K562.
Assay [12] has as its system Hs-578T.
Assay [13] concerns SF-268.
The test system of assay [14] is UACC-257.
Assay [15] concerns TK-10.
Assay [16] has as its system SK-MEL-5.
The test system of assay [17] is SW-620.
Assay [18] concerns HOP-92.
Assay [19] concerns SK-MEL-2.
For assay [20], the system named is PC-3.

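Five compound concentrations were applied to cells in 96-well plates for 48 hours; endpoints were derived by simple linear interpolation of the resulting dose-response curve. GI50 marks 50% less growth.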 Calls of active or inactive are those of the source. Cut-off read from the data, not from the text of the source: active = GI50 up to about 1.1 µM and inactive = higher.

As for `C=CC[C@@H]1C=C[C@@H](C(=O)OC)n2c(=O)n(-c3ccccc3)c(=O)n21`, the GI50 in [1], in assay [2], in [3], in assay [4], in [5] and in assay [6] was > 100 µM (inactive) in each case. For the same compound, the GI50 in [7], in assay [8], in assay [9], in [10], in assay [11] and in assay [12] was > 100 µM (inactive) in each case. Also, the GI50 in assay [13], in assay [14], in assay [15], in assay [16], in assay [17] and in assay [18] was > 100 µM (inactive) throughout.
In the case of `Cc1ccc(S(=O)(=O)Oc2nc3nc4ccccc4nc3nc2OS(=O)(=O)c2ccc(C)cc2)cc1`, the GI50 in assay [1], in assay [2], in [5], in [6], in assay [19] and in assay [7] was > 100 µM (inactive) in each case. For the same compound, the GI50 in [8], in [10], in [12], in assay [13], in [14] and in assay [15] was > 100 µM (inactive) each time. The GI50 in assay [16] and in [20] was > 100 µM (inactive) in each case.
Regarding `O=C1C=C(Nc2cccnc2)c2ccccc2/C1=N/O`, the GI50 is 11.1 µM (inactive) in assay [1]; 34.1 µM (inactive) in assay [2]; 19.6 µM (inactive) in assay [3]; 12.7 µM (inactive) in [5]; 5.69 µM (inactive) in [6]; 31.3 µM (inactive) in [19]. Also, the GI50 in [7] is 13.6 µM (inactive); in assay [8], 21.5 µM (inactive); in assay [9] it was 15.7 µM (inactive); in [10], 1.38 µM (inactive); in assay [11], 24.7 µM (inactive); in assay [12], 33.4 µM (inactive). Also, the GI50 in assay [13] is 9.77 µM (inactive); in assay [14], 33.1 µM (inactive); in assay [15], > 100 µM (inactive); in assay [16], 4.67 µM (inactive); in [20] it was 19.5 µM (inactive); in assay [17], 18.3 µM (inactive). For the same compound, the GI50 in assay [18] is 21.8 µM (inactive).
In the case of `Nc1c(-c2ccc(Cl)c(Cl)c2)c2ccc([N+](=O)[O-])cc2c(=O)n1-c1nc2ccccc2s1`, the GI50 is 0.824 µM (active) in [1]; 0.762 µM (active) in assay [2]; 1.19 µM (inactive) in assay [3]; 0.417 µM (active) in assay [4]; 0.582 µM (active) in assay [5]; 1.07 µM (active) in [6]. Also, the GI50 in assay [19] was 0.369 µM (active); in [7], 0.64 µM (active); in [8] it was 0.366 µM (active); in assay [9] it was 1.12 µM (active); in assay [10], 0.418 µM (active); in assay [11], 0.367 µM (active). Moreover, the GI50 is 0.531 µM (active) in [13]; 0.471 µM (active) in assay [14]; 0.594 µM (active) in assay [15]; 0.328 µM (active) in assay [16]; 0.311 µM (active) in assay [20]; 0.574 µM (active) in assay [17]. Besides, the GI50 in [18] was 0.296 µM (active).
In the case of `Cc1n(Cc2ccccc2)c2c([n+]1C)C(=O)c1ccccc1C2=O`, the GI50 in assay [1] is 0.0417 µM (active); in [2] it was 0.0822 µM (active); in [3], 0.0401 µM (active); in assay [5] it was 0.183 µM (active); in assay [6], 0.0736 µM (active); in [19], 0.132 µM (active). The GI50 in assay [7] is 0.0605 µM (active); in [8], 0.0431 µM (active); in assay [9], 0.0421 µM (active); in assay [10], 0.0581 µM (active); in [11], 0.0366 µM (active); in assay [12], 0.415 µM (active). Further, the GI50 was 0.0274 µM (active) in assay [13]; 0.034 µM (active) in [14]; 0.265 µM (active) in assay [15]; 0.0211 µM (active) in assay [16]; 0.0838 µM (active) in [20]; 0.0455 µM (active) in assay [17]. Besides, the GI50 in assay [18] was 0.369 µM (active).
For the compound `Clc1ncnc2c1nc(C#Cc1ccccc1)n2C1CCCCO1` (configuration not stated), the GI50 was 1.91 µM (inactive) in [1]; 1.9 µM (inactive) in [2]; 1.87 µM (inactive) in assay [3]; 2.35 µM (inactive) in assay [5]; 2.6 µM (inactive) in [6]; 2.47 µM (inactive) in assay [19]. For the same compound, the GI50 in assay [7] is 1.63 µM (inactive); in assay [8] it was 3.3 µM (inactive); in [9], 2.02 µM (inactive); in assay [10], 2.53 µM (inactive); in [11], 1.38 µM (inactive); in assay [12] it was 3.95 µM (inactive). The GI50 in assay [13] was 2.32 µM (inactive); in assay [14], 2.61 µM (inactive); in assay [15], 2.63 µM (inactive); in [16], 2.21 µM (inactive); in assay [20], 3.27 µM (inactive); in assay [17] it was 1.86 µM (inactive). Further, the GI50 in assay [18] was 1.8 µM (inactive).
Regarding `COC(=O)c1ccccc1C1CN=NC12Cc1c(C)ccc(C)c1C2=O` (configuration not stated), the GI50 in assay [1], in assay [2], in assay [3], in assay [5], in [6] and in [19] was > 100 µM (inactive) in each case. Also, the GI50 was > 100 µM (inactive) in assay [7]; > 100 µM (inactive) in [8]; 88.5 µM (inactive) in assay [9]; > 100 µM (inactive) in assay [10]; 68.5 µM (inactive) in assay [11]; > 100 µM (inactive) in assay [12]. For the same compound, the GI50 in assay [13], in assay [14], in [15], in assay [16], in assay [20] and in assay [17] was > 100 µM (inactive) in each case. In addition, the GI50 in assay [18] was 23.3 µM (inactive).
With `O=C1N=C(S)NNC12c1ccccc1-c1ccccc12`, the GI50 in assay [1], in [2], in assay [3], in assay [4], in assay [6] and in assay [7] was > 10 µM (inactive) throughout. Further, the GI50 in [8] was > 10 µM (inactive); in [9], > 10 µM (inactive); in assay [11], > 10 µM (inactive); in assay [12], 6.18 µM (inactive); in assay [13], > 10 µM (inactive); in [14], > 10 µM (inactive). Besides, the GI50 was > 10 µM (inactive) in [15], 5.22 µM (inactive) in assay [16], > 10 µM (inactive) in [17] and > 10 µM (inactive) in [18].
For `Clc1cccc(Cl)c1C1SCc2nc3cc4ccccc4cc3n21` (configuration not stated), the GI50 in assay [1], in assay [2], in [3], in [5], in [6] and in assay [19] was > 100 µM (inactive) each time. The GI50 in [7], in [8], in assay [9], in [10], in assay [11] and in assay [12] was > 100 µM (inactive) each time. The GI50 in [13], in assay [14], in assay [15], in [16], in assay [20] and in [17] was > 100 µM (inactive) throughout.
In the case of `COC(=O)c1ccccc1C1CN=NC12Cc1c(ccc(C)c1C)C2=O` (configuration not stated), the GI50 in [1] is > 100 µM (inactive); in assay [2], > 100 µM (inactive); in assay [3], 42.3 µM (inactive); in assay [5] it was > 100 µM (inactive); in assay [6] it was 22 µM (inactive); in assay [19] it was > 100 µM (inactive). Besides, the GI50 in assay [7] was > 100 µM (inactive); in assay [8], 61.1 µM (inactive); in assay [9] it was > 100 µM (inactive); in [10] it was 85.9 µM (inactive); in assay [11] it was > 100 µM (inactive); in assay [12] it was 80.9 µM (inactive). Besides, the GI50 in assay [13] was 39.1 µM (inactive); in assay [14], > 100 µM (inactive); in assay [15], > 100 µM (inactive); in [16], > 100 µM (inactive); in assay [20], 90.6 µM (inactive); in [17] it was > 100 µM (inactive). Further, the GI50 in assay [18] is 21.3 µM (inactive).
As for `CC(C)=CCC/C(C)=C/CO` [GERANIOL], the GI50 in assay [1], in assay [2], in assay [3], in [5], in assay [19] and in [7] was > 100 µM (inactive) throughout. Besides, the GI50 in assay [8], in assay [9], in [10], in assay [11], in [12] and in assay [13] was > 100 µM (inactive) each time. The GI50 in [14], in assay [15], in assay [16], in assay [20] and in assay [17] was > 100 µM (inactive) throughout.
